Test results taken from patent publication US8022091B2, “Triazole derivative” (Taisho Pharmaceutical Co., Ltd., priority 2006, dated 2011).

target: T1, human Edg-1 (S1P1) (Homo sapiens, UniProt P21453); test: S1P1 binding assay: inhibition of [33P]-S1P binding to membrane fraction of HEK-293 cells transferred with the human Edg-1 (S1P1) gene; details: [33P]-S1P 0.1 nM, human Edg-1 (S1P1) HEK-293 membrane fraction, 1 h at 30° C.; read-out: IC50 (concentration at which binding in the absence of the test compound was inhibited by 50%)
T1 construct: expressed in transfected cells; host or cells: HEK-293
T1 sequence (P21453 whole entry): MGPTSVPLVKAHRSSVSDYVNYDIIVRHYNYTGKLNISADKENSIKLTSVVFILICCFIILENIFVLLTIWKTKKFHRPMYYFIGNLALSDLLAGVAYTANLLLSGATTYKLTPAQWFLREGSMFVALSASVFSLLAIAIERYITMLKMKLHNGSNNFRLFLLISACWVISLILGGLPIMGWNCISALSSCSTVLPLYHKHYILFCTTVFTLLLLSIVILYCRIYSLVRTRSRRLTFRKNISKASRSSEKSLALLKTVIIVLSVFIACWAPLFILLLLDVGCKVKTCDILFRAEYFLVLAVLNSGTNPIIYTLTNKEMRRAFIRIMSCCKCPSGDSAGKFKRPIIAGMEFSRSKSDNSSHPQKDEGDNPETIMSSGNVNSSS
Protocol: The membrane fraction was obtained by treating the cells with a solubilizing buffer (1 mM Tris/HCl, pH 7.2) for 10 minutes on ice, centrifuging at 1000×g for 5 minutes to remove insoluble fractions, and then centrifuging at 40000×g for 30 minutes at 4° C. The resulting membrane fraction was dissolved in a binding buffer (20 mM Tris-HCl, pH 7.4, 100 mM NaCl, 15 mM NaF, 2 mM deoxypyridoxine, 4 mg/mL fatty acid-free BSA), and then [^33P]-S1P (manufactured by ARC, final concentration 0.1 nM) and a DMSO solution (final concentration of the compound 10^−5M, final concentration of DMSO 0.1%) of the test compound were added. Thereafter, the mixture was stirred and then treated for one hour at 30° C. Using a harvester, the membrane fraction was harvested onto unifilter-96 GF/C filter (manufactured by Perkin Elmer), washing was carried out four times with the binding buffer, and the filter was dried. Twenty five μL Microscint 0 (manufactured by Perkin Elmer) was added, and radioactivity was measured using Top Count NXT (manufactured by Packard) to calculate the amount (A) of [^33P]-S1P bound to the membrane fraction at the time when the compound was added.
The same procedure was carried out in the absence of the test compound, and the amount (B) of [^33P]-S1P bound was calculated. Further, the same procedure was carried out in the absence of the test compound by use of HEK-293 cells to which no Edg-1 (S1P1) gene was introduced, and the background amount (C) of [^33P]-S1P bound was calculated.
Inhibition rate (%)=[1−(A−C)/(B−C)]×100
Further, concentrations (IC50) at the time when binding in the absence of the test compound was inhibited by 50% were calculated. The membrane system binding assay was carried out in the presence of test compounds with various concentrations, and the Edg-1 (S1P1) binding inhibition rates were calculated using the equation above. Then, IC50 values were calculated using Origin (Lightstone Corp.), a software for data analysis.

IC50 | Structure (SMILES)
0.0042 µM | CCn1c(Oc2cccc(N3CCN(C)CC3)c2)nnc1[C@@H](C)NS(=O)(=O)c1ccc(Cl)c(Cl)c1 [Compound 45, 3,4-Dichloro-N-((R)-1-[4-ethyl-5-[3-(4-methyl-piperazin-1-yl)-phenoxy]-4H-[1,2,4]triazol-3-yl]-ethyl)-benzenesulfonamide]
0.039 µM | CCn1c(Nc2ccc(C)cc2)nnc1[C@@H](C)NS(=O)(=O)c1ccc(Cl)c(Cl)c1 [Compound 61, N-[(1R)-1-(4-Ethyl-5(4-methylphenylamino)-4H-[1,2,4]triazol-3-yl)ethyl]3,4-dichlorobenzenesulfonamide]
≤ 0.01 µM | CCn1c(Oc2cccc(N3CCC4(CC3)OCCO4)c2)nnc1[C@@H](C)NS(=O)(=O)c1ccc(Cl)c(Cl)c1 [Compound 87, 3,4-Dichloro-N-((R)-1-[5-[3-(1,4-dioxa-8-aza-spiro[4.5]decan-8-yl)-phenoxy]-4-ethyl-4H-[1,2,4]triazol-3-yl]-ethyl)-benzenesulfonamide]
0.0054 µM | CCn1c(Oc2cccc(N3CCC(=O)CC3)c2)nnc1[C@@H](C)NS(=O)(=O)c1ccc(Cl)c(Cl)c1 [Compound 88, 3,4-Dichloro-N-((R)-1-[4-ethyl-5-[3-(4-oxo-piperidin-1-yl)-phenoxy]-4H-[1,2,4]triazol-3-yl]-ethyl)-benzenesulfonamide]
0.0185 µM | CCn1c(Oc2cccc(N(CCOC)CCOC)c2)nnc1[C@@H](C)NS(=O)(=O)c1ccc(Cl)c(Cl)c1 [Compound 100]
≤ 0.01 µM | CCn1c(Oc2ccc3cc[nH]c3c2)nnc1[C@@H](C)NS(=O)(=O)c1ccc2c(Cl)cccc2c1 [Compound 151]

same assay, conditions: test compound at 10 μM; inhibition of [33P]-S1P binding to the membrane fraction of HEK-293 cells expressing human Edg-1 (S1P1)

inhibition at 10 µM | Structure (SMILES)
106% | CCn1c(Oc2cccc(N3CCN(C)CC3)c2)nnc1[C@@H](C)NS(=O)(=O)c1ccc(Cl)c(Cl)c1 [Compound 45, 3,4-Dichloro-N-((R)-1-[4-ethyl-5-[3-(4-methyl-piperazin-1-yl)-phenoxy]-4H-[1,2,4]triazol-3-yl]-ethyl)-benzenesulfonamide]
80.6% | CCn1c(Sc2ccc(C)cc2)nnc1[C@@H](C)NS(=O)(=O)c1ccc(Cl)c(Cl)c1 [Compound 55, 3,4-Dichloro-N-[(R)-1-(4-ethyl-5(4-methylbenzenesulfanyl)-4H-[1,2,4]triazol-3-yl)-ethyl]-benzenesulfonamide]
88.3% | CCn1c(Cc2ccc(C)cc2)nnc1[C@@H](C)NS(=O)(=O)c1ccc(Cl)c(Cl)c1 [Compound 56, 3,4-Dichloro-N-[(R)-1-[4-ethyl-5(4-methylbenzyl)-4H-[1,2,4]triazol-3-yl]-ethyl]-benzenesulfonamide]
102% | CCn1c(Nc2ccc(C)cc2)nnc1[C@@H](C)NS(=O)(=O)c1ccc(Cl)c(Cl)c1 [Compound 61, N-[(1R)-1-(4-Ethyl-5(4-methylphenylamino)-4H-[1,2,4]triazol-3-yl)ethyl]3,4-dichlorobenzenesulfonamide]
99.9% | CCn1c(Oc2cccc(N3CCC4(CC3)OCCO4)c2)nnc1[C@@H](C)NS(=O)(=O)c1ccc(Cl)c(Cl)c1 [Compound 87, 3,4-Dichloro-N-((R)-1-[5-[3-(1,4-dioxa-8-aza-spiro[4.5]decan-8-yl)-phenoxy]-4-ethyl-4H-[1,2,4]triazol-3-yl]-ethyl)-benzenesulfonamide]
99.5% | CCn1c(Oc2cccc(N3CCC(=O)CC3)c2)nnc1[C@@H](C)NS(=O)(=O)c1ccc(Cl)c(Cl)c1 [Compound 88, 3,4-Dichloro-N-((R)-1-[4-ethyl-5-[3-(4-oxo-piperidin-1-yl)-phenoxy]-4H-[1,2,4]triazol-3-yl]-ethyl)-benzenesulfonamide]
110% | CCn1c(Oc2cccc(N(CCOC)CCOC)c2)nnc1[C@@H](C)NS(=O)(=O)c1ccc(Cl)c(Cl)c1 [Compound 100]
81.8% | CCn1c(Oc2ccc(F)cc2)nnc1[C@@H](C)N(C)S(=O)(=O)c1ccc(Cl)c(Cl)c1 [Compound 115, 3,4-Dichloro-N-[(R)-1-[4-ethyl-5-(4-fluorophenoxy)-4H-[1,2,4]triazol-3-yl]-ethyl]-N-methyl-benzenesulfonamide]
94.4% | CCn1c(Oc2ccc(F)cc2)nnc1[C@@H](C)NS(=O)(=O)c1ccc(C)c(Cl)c1 [Compound 127]
92.3% | CCn1c(Oc2ccc(F)cc2)nnc1[C@@H](C)NS(=O)(=O)c1ccc(C(C)=O)cc1 [Compound 154]
59.9% | CCn1c(Oc2ccc(F)cc2)nnc1[C@@H](C)NS(=O)(=O)c1ccccc1 [Compound 155]
107% | CCn1c(Oc2ccc(F)cc2)nnc1[C@@H](C)NS(=O)(=O)c1ccc(Br)cc1 [Compound 156]
74.6% | CCn1c(Oc2ccc(F)cc2)nnc1[C@@H](C)NS(=O)(=O)c1ccc(C(C)(C)C)cc1 [Compound 157]
96.9% | CCn1c(Oc2ccc(F)cc2)nnc1[C@@H](C)NS(=O)(=O)c1cccc(Br)c1 [Compound 160]
109% | CCn1c(Oc2ccc(F)cc2)nnc1[C@@H](C)NS(=O)(=O)c1ccc(Cl)cc1 [Compound 162]
72.9% | CCn1c(Oc2ccc(F)cc2)nnc1[C@@H](C)NS(=O)(=O)c1cccc(C#N)c1 [Compound 165]
113% | CCn1c(Oc2ccc(F)cc2)nnc1[C@@H](C)NS(=O)(=O)c1cc(C)c(Cl)cc1C [Compound 167]
68.4% | CCn1c(Oc2ccc(F)cc2)nnc1[C@@H](C)NS(=O)(=O)c1cc(Cl)ccc1Cl [Compound 168]
76% | CCn1c(Oc2ccc(F)cc2)nnc1[C@@H](C)NS(=O)(=O)c1ccc(OC)c(OC)c1 [Compound 170]
92% | CCc1ccc(S(=O)(=O)N[C@H](C)c2nnc(Oc3ccc(F)cc3)n2CC)cc1 [Compound 172]
97.2% | CCn1c(Oc2ccc(F)cc2)nnc1[C@@H](C)NS(=O)(=O)c1ccc(F)cc1 [Compound 173]
52.5% | CCn1c(Oc2ccc(F)cc2)nnc1C(C)(C)NS(=O)(=O)c1c(C)cc(C)cc1C [Compound 174]
103% | CCn1c(Oc2ccc(F)cc2)nnc1[C@@H](C)NS(=O)(=O)c1ccc(OC)cc1 [Compound 175, N-[(R)-1-[4-Ethyl-5-(4-fluorophenoxy)-4H-[1,2,4]triazol-3-yl]-ethyl]-4-methoxybenzenesulfonamide]
55.3% | CCn1c(Oc2ccc(F)cc2)nnc1[C@@H](C)NS(=O)(=O)c1ccc(S(C)(=O)=O)cc1 [Compound 177]
83% | CCn1c(Oc2ccc(F)cc2)nnc1[C@@H](C)NS(=O)(=O)c1cccc2ccccc12 [Compound 179]

inhibition at 10 µM | Structure (SMILES)
94.6% | CCn1c(Oc2ccc(F)cc2)nnc1[C@@H](C)NS(=O)(=O)CCc1cccc2ccccc12 [Compound 180]
50.4% | CCn1c(Oc2ccc(F)cc2)nnc1[C@@H](C)NS(=O)(=O)c1c(F)c(F)c(F)c(F)c1F [Compound 181]
109% | CCn1c(Oc2ccc(F)cc2)nnc1[C@@H](C)NS(=O)(=O)c1ccc(I)cc1 [Compound 182]
92.8% | CCn1c(Oc2ccc(F)cc2)nnc1[C@@H](C)NS(=O)(=O)/C=C/c1ccccc1 [Compound 183]
97.3% | CCn1c(Oc2ccc(F)cc2)nnc1[C@@H](C)NS(=O)(=O)c1cc(Cl)c(Cl)cc1Cl [Compound 184]
86.8% | CCn1c(Oc2ccc(F)cc2)nnc1[C@@H](C)NS(=O)(=O)c1ccc(C)cc1 [Compound 186]
107% | CCn1c(Oc2ccc(F)cc2)nnc1[C@@H](C)NS(=O)(=O)c1cccc(C(F)(F)F)c1 [Compound 188]
99.7% | CCn1c(Oc2ccc(F)cc2)nnc1[C@@H](C)NS(=O)(=O)c1ccccc1C [Compound 189]
87.9% | CCn1c(Oc2ccc(F)cc2)nnc1[C@@H](C)NS(=O)(=O)c1ccc(OC(F)(F)F)cc1 [Compound 190]
96.9% | C=Cc1ccc(S(=O)(=O)N[C@H](C)c2nnc(Oc3ccc(F)cc3)n2CC)cc1 [Compound 191]
95.2% | CCn1c(Oc2ccc(F)cc2)nnc1[C@@H](C)NS(=O)(=O)c1cccc(C)c1 [Compound 192]
80.7% | CCn1c(Oc2ccc(F)cc2)nnc1[C@@H](C)NS(=O)(=O)c1ccc2c(c1)CN(C(=O)C(F)(F)F)CC2 [Compound 194]
90.1% | CCn1c(Oc2ccc(F)cc2)nnc1[C@@H](C)NS(=O)(=O)c1cc(C)ccc1C [Compound 195]
65.6% | CCn1c(Oc2ccc(F)cc2)nnc1[C@@H](C)NS(=O)(=O)c1ccc(-c2csnn2)s1 [Compound 196]
84.3% | CCn1c(Oc2ccc(F)cc2)nnc1[C@@H](C)NS(=O)(=O)c1ccc(C(=O)OC)n1C [Compound 201]
85.4% | CCCc1ccc(S(=O)(=O)N[C@H](C)c2nnc(Oc3ccc(F)cc3)n2CC)cc1 [Compound 206]
108% | CCn1c(Oc2ccc(F)cc2)nnc1[C@@H](C)NS(=O)(=O)c1ccc(Cl)c(Cl)c1Cl [Compound 207]
80.2% | CCn1c(Oc2ccc(F)cc2)nnc1C(C)(C)NS(=O)(=O)c1c(C)c(C)cc(C)c1C [Compound 208]
91.4% | CCn1c(Oc2ccc(F)cc2)nnc1[C@@H](C)NS(=O)(=O)c1cccc(Cl)c1Cl [Compound 209]
69.7% | CCn1c(Oc2ccc(F)cc2)nnc1[C@@H](C)NS(=O)(=O)c1cc(C(F)(F)F)cc(C(F)(F)F)c1 [Compound 212]
102% | CCn1c(Oc2ccc(F)cc2)nnc1[C@@H](C)NS(=O)(=O)c1cc(Cl)cc(Cl)c1 [Compound 213]
102% | CCn1c(Oc2ccc(F)cc2)nnc1[C@@H](C)NS(=O)(=O)c1cccc(Cl)c1C [Compound 214]
91.4% | CCn1c(Oc2ccc(F)cc2)nnc1[C@@H](C)NS(=O)(=O)c1cccc(OC)c1 [Compound 215]
88.9% | CCn1c(Oc2ccc(F)cc2)nnc1[C@@H](C)NS(=O)(=O)c1cc(F)c(Br)cc1F [Compound 216]
74.7% | CCn1c(Oc2ccc(F)cc2)nnc1[C@@H](C)NS(=O)(=O)c1cc(Br)ccc1OC [Compound 218]
